In patent US20070135382A1, “Use of peroxisome proliferator-activated receptor gamma (ppary) and/or retinoic acid receptor (rxr) agonists to inhibit platelet functions” (priority 2003, published 2007):

Columns and labels:
platelets [1] = assay: Platelet aggregation in platelet rich plasma (turbidometric method of Born); type: cell-based, human
Protocol: Platelet aggregation was performed using the turbidometric method of Born (“Quantitative Investigations into the Aggregation of Blood Platelets,” J. Physiol. Lond. 162:67 (1962), which is hereby incorporated by reference in its entirety) with simultaneous measurement of ATP release using a Chrono-log Lumi-aggregometer with AGGRO/LINK for Windows Software version 5.1.6 (Chrono-log Corp., Havertown, Pa.). Blood was collected by clean venipuncture from normal donors who abstained from drugs known to affect platelet aggregation into 0.105M/sodium citrate. Platelet rich plasma (PRP) was prepared by centrifugation at 150×g for 10 min at 20° C., and the platelet count adjusted to 250,000/μl by mixing PRP and platelet poor plasma from the same donor. All experiments were performed within 3 hours of blood collection. Aggregation was performed with ADP, and the slope of aggregation and amplitude were computed using accompanying software. The effects of the PPARγ agonist 15d-PGJ2 were tested by addition of varying concentrations to PRP for 15 min before aggregation. The 15d-PGJ2 was dissolved in DMSO, with a final concentration of DMSO in the samples of approximately 0.1%.

PPARγ [2] = biological target: T1, PPARγ (Homo sapiens, UniProt P37231); assay: TransAM PPARγ DNA binding activity assay in platelets; type: cell-based; details: platelets exposed to 20 μM agonist, 2 h at 37° C.
T1 construct: 10 μg of cell extract was incubated in each well of TransAM® PPARγ assay kit; endogenous in cells; host or cells: purified human blood platelets
T1 sequence (P37231 1-505): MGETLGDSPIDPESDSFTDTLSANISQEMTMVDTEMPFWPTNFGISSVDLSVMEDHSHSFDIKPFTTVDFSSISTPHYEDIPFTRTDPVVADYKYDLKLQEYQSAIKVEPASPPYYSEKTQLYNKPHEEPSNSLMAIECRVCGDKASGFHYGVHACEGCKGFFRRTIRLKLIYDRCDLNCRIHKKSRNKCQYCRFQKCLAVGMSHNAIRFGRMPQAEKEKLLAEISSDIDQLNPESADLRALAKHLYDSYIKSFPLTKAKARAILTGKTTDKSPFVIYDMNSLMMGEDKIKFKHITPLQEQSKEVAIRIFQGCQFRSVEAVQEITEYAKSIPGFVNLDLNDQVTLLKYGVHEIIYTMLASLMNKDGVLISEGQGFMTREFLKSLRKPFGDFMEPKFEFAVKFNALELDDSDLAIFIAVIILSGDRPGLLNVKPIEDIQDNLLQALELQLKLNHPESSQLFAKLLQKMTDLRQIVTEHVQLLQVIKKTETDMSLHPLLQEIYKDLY
T1 sequence (P19793 1-462 partner): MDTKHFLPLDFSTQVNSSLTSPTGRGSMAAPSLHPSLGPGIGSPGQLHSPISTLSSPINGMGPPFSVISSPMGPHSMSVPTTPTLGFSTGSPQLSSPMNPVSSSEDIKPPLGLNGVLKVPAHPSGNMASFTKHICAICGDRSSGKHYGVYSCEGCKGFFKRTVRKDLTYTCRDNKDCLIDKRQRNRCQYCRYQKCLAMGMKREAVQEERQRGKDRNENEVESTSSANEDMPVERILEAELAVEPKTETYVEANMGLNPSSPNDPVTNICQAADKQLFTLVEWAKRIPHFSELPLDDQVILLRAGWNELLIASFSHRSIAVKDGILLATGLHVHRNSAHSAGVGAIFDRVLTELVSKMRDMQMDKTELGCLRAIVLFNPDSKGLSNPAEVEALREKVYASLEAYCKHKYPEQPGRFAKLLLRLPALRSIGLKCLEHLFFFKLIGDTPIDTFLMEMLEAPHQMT
Protocol: Platelets were lysed with hypotonic buffer (10 mM HEPES-KOH (pH 7.9), 1.5 mM MgCl2, 10 mM KCl, 0.5 mM DTT, 0.5% Nonidet P-40 and 0.2 mM PMSF) and 10 μg of cell extract was incubated in each well of TransAM® PPARγ assay kit (Active Motif, Carlsbad, Calif.) and PPARγ DNA binding was determined as per manufacturers' protocol.
The ability of platelet derived PPARγ to bind its DNA consensus sequence was also measured using the TransAM™ PPARγ assay kit (Active Motif Inc.). In this method the consensus DNA sequence for PPARγ binding (or as a control mutated oligonucleotides) is plate-bound. A cell lysate is then added to the well, washed and next incubated with an enzyme-conjugated anti-PPARγ antibody that recognizes only DNA-bound PPARγ. Following substrate addition, a colored product is formed.

PPARγ [3] = biological target: T1, PPARγ; assay: Electrophoretic mobility shift assay for PPARγ DNA binding in Meg-01 cells; type: cell-based; details: 15d-PGJ2 5 μM or ciglitazone 10 μM, 4 hours, nuclear extract, vs DMSO
Protocol: Cells were treated with 5 μM 15d-PGJ2, 10 μM ciglitazone, or DMSO (vehicle control) for 4 hours. The cells were washed in cold PBS and then incubated on ice in hypotonic buffer (10 mM HEPES-KOH (pH 7.9), 1.5 mM MgCl2, 10 mM KCl, 0.5 mM DTT, 0.5% Nonidet P-40 and 0.2 mM PMSF) for 10 minutes. The lysates were vortexed for 10 seconds and centrifuged for 15 seconds. The pellet was isolated carefully and re-suspended in 80 μl of hypertonic buffer (20 mM HEPES-KOH (pH 7.9), 1.5 mM MgCl2, 25% glycerol, 420 mM NaCl, 0.2 mM EDTA, 0.5 mM DTT, and 0.2 mM PMSF). After incubation on ice for 20 minutes, lysates were centrifuged for 20 seconds and the supernatant containing the nuclear protein was transferred to new tubes. Protein quantification was performed using a BCA assay kit. Platelet protein isolation was done as described for the PPARγ activity assay. For the gel shift assay of Meg-01 and platelets, the consensus sequence for PPARγ (5′-[…]-3′) (SEQ ID NO: 1) was labeled with [γ-32P]ATP using T4 Polynucleotide Kinase (Life technologies). Micro Bio-Spin P-30 Tris Chromatography Columns were used to remove the unbound nucleotides (Bio-Rad). […]

human platelets [4] = assay: Thrombin-induced platelet release of PGE2 (enzyme immunoassay); type: cell-based; details: 20 μM for 15 min, then 0.8 U/ml thrombin
Protocol: (§1) Platelets were then activated with 0.8 U/ml thrombin or buffer and samples were taken at the 5, 10, 15, 30 and 60 minutes time points to measure human soluble CD40L and PGE2. CD40L assays were performed with a commercially available ELISA specific for CD40L (Bender Biomedical Systems, San Bruno, Calif.). […] The stable end product of platelet TXA2 synthesis, namely TXB2, was measured using a highly specific enzyme immunoassay from Cayman Chemical Company as per the manufacturer's directions.

platelets [5] = assay: ATP release from platelets during aggregation (Lumi-aggregometry); details: 20 μM
Protocol: ATP release from platelets during aggregation was characterized by Lumi-Aggregometry after stimulation with thrombin (1 U/ml) or ADP (5 μM). […] The rate of release with normal platelets was defined as 100%. […] The results represent mean±SEM of three experiments.
Platelet aggregation was performed using the turbidometric method of Born (“Quantitative Investigations into the Aggregation of Blood Platelets,” J. Physiol. Lond. 162:67 (1962), which is hereby incorporated by reference in its entirety) with simultaneous measurement of ATP release using a Chrono-log Lumi-aggregometer with AGGRO/LINK for Windows Software version 5.1.6 (Chrono-log Corp., Havertown, Pa.). Blood was collected by clean venipuncture from normal donors who abstained from drugs known to affect platelet aggregation into 0.105M/sodium citrate. Platelet rich plasma (PRP) was prepared by centrifugation at 150×g for 10 min at 20° C., and the platelet count adjusted to 250,000/μl by mixing PRP and platelet poor plasma from the same donor. All experiments were performed within 3 hours of blood collection. Aggregation was performed with ADP, and the slope of aggregation and amplitude were computed using accompanying software. The effects of the PPARγ agonist 15d-PGJ2 were tested by addition of varying concentrations to PRP for 15 min before aggregation. The 15d-PGJ2 was dissolved in DMSO, with a final concentration of DMSO in the samples of approximately 0.1%. […] Additional clotting studies were performed using a PFA-100 according to the manufacturer's instructions. Basically, clotting time (induced by clotting activator such as epinephrine or ADP) was measured in the presence or absence of a PPARγ agonist, and differences noted.
To determine if a PPARγ agonist would inhibit platelet aggregation, the natural PPARγ agonist 15d-PGJ2 was added to PRP and aggregation and ATP release stimulated with ADP.

Human blood = assay: PFA-100 clotting (closure) time in human blood; type: cell-based; details: vs vehicle only, p=0.012
Protocol: Platelet activation was induced using epinephrine or ADP, and clotting time was assessed using a PFA-100. The PFA-100 allows for an approximation of bleeding times in patients. Longer closure times equal a lower ability to form a clot. […] Human blood was exposed to 15d-PGJ2 or vehicle only followed by testing in the PFA-100 activated with ADP.

human platelets [6] = assay: Thrombin-induced platelet release of CD40L (ELISA); type: cell-based; details: 20 μM for 15 min, then 0.8 U/ml thrombin, 5-60 min
Protocol: as §1
(§2) Platelets were then incubated with buffer or with thrombin, a powerful platelet activator.

human platelets [7] = assay: Thrombin-induced platelet release of TXB2 (enzyme immunoassay); type: cell-based; details: 20 μM for 15 min, then 0.8 U/ml thrombin, 5-60 min
Protocol: as §1, §2

For `CCCCC/C=C/C=C1/C(=O)C=C[C@@H]1C/C=C\CCCC(=O)O` [15d-PGJ2, 15D-prostaglandin J2], the “aggregation slope (rate)” value (platelets [1]; 10 μM, ADP as platelet agonist) was “decrease the aggregation slope”, the “initial slope of platelet aggregation, % of the normal (untreated)” value (platelets [1]; 20 μM, ADP-stimulated PRP, first 16 seconds, mean±SEM, n=7) was 83±5% and the “amplitude of aggregation, % of normal platelets” value (platelets [1]; 20 μM, ADP-stimulated PRP, mean±SEM, n=7) was 64±11%. For the same compound, the “platelet aggregation, concentration dependence” value (platelets [1]; varying concentrations, 15 min before ADP) was “concentration dependent inhibition”, the “binding to the PPARγ DNA response element (TransAM)” value (PPARγ [2]) was “significantly enhances binding” and the “level of active (DNA binding) PPARγ in Meg-01 cells by EMSA” value (PPARγ [3]) was “increased”. For the same compound, the “thrombin-induced release of PGE2” value (human platelets [4]) was “substantially prevented”, the “ATP release amplitude, % of normal platelets” value (platelets [5]; ADP-stimulated, n=7) was 22±10% and the “ATP release slope, % of normal” value (platelets [5]; ADP-stimulated, n=7) was 15±5%. For the same compound, the “rate of ATP release with thrombin” value (platelets [5]; thrombin 1 U/ml) was “significant (P=0.002) reduction”, the “PFA-100 closure time, ADP activated” value (Human blood) was “takes longer to form a closure” and the “release of CD40L” value (human platelets [6]) was “largely prevented”. The “release of TXB2” value (human platelets [7]) was “largely prevented”.
